Laboratory results: the NIST ThermoML archive (doi:10.1021/je300993n)
± gives the expanded uncertainty stated by the source.

Key:
[1] = refractive index (Na D-line) (dimensionless); conditions: 293.15 K; 101.33 kPa; Liquid; Standard Abbe refractometry
[2] = refractive index (Na D-line) (dimensionless); wn = mass fraction of the nth substance listed; conditions: 293.15 K, 101 kPa, Liquid, Standard Abbe refractometry
[3] = for mass density: 293.15 K, 101.33 kPa, gas displacement; for Normal melting temperature / Triple point temperature: DTA

Row | SMILES | refractive index ([2]; w1 = 0.1) | refractive index ([2]; w1 = 0.2) | refractive index ([2]; w1 = 0.3) | refractive index ([2]; w1 = 0.4) | refractive index ([2]; w2 = 0) | further results
1 | O=S(=O)(O)C(F)(F)F [methanesulfonic acid, trifluoro-] | – | – | – | – | – | refractive index [1]: 1.3292 ± 0.005
2 | CCCC[N+](CC)(CC)CC.F[B-](F)(F)F [N,N,N-triethyl-N-butylammonium tetrafluoroborate] | – | – | – | – | – | mass density ([3]; Crystal 2): 1140 ± 16 kg/m3; Normal melting temperature ([3]; Crystal 1): 161.90 ± 0.5 °C; Triple point temperature ([3]; Crystal 2): 305.85 ± 0.5 K
3 | O=S(=O)(O)C(F)(F)F [methanesulfonic acid, trifluoro-] + CCCCCC[N+](CC)(CC)CC.[F][Sb-]([F])([F])([F])([F])[F] | – | – | – | – | 1.3292 ± 0.005 | –
4 | CCCCCC[N+](CC)(CC)CC.F[B-](F)(F)F [N,N,N-triethyl-N-hexylammonium tetrafluoroborate] | – | – | – | – | – | mass density ([3]; Crystal): 1094 ± 16 kg/m3; Normal melting temperature ([3]; Crystal): 88.20 ± 0.5 °C
5 | O=S(=O)(O)C(F)(F)F [methanesulfonic acid, trifluoro-] + CC[N+](CC)(CC)CC.F[B-](F)(F)F | – | – | – | – | 1.3292 ± 0.005 | –
6 | CCCCCCCC[N+](CC)(CC)CC.F[P-](F)(F)(F)(F)F [N,N,N-triethyl-N-octylammonium hexafluorophosphate] | – | – | – | – | – | mass density ([3]; Crystal 2): 1190 ± 16 kg/m3; Normal melting temperature ([3]; Crystal 1): 88.30 ± 0.5 °C; Triple point temperature ([3]; Crystal 2): 311.65 ± 0.5 K
7 | CCCCCC[N+](CC)(CC)CC.[F][Sb-]([F])([F])([F])([F])[F] [N,N,N-triethyl-N-hexylammonium hexafluoroantimonate] | – | – | – | – | – | mass density ([3]; Crystal): 1488 ± 16 kg/m3; Normal melting temperature ([3]; Crystal): 174.00 ± 0.5 °C
8 | O=S(=O)(O)C(F)(F)F [methanesulfonic acid, trifluoro-] + CCCCCCCC[N+](CC)(CC)CC.F[B-](F)(F)F | – | – | – | – | 1.3292 ± 0.005 | –
9 | CCCCCCCC[N+](CC)(CC)CC.F[B-](F)(F)F [N,N,N-triethyl-N-octylammonium tetrafluoroborate] | – | – | – | – | – | mass density ([3]; Crystal): 1065 ± 16 kg/m3; Normal melting temperature ([3]; Crystal): 101.40 ± 0.5 °C
10 | O=S(=O)(O)C(F)(F)F [methanesulfonic acid, trifluoro-] + CCCC[N+](CC)(CC)CC.F[B-](F)(F)F | – | – | – | – | 1.3292 ± 0.005 | –
11 | CC[N+](CC)(CC)CC.[F][Sb-]([F])([F])([F])([F])[F] [tetraethylammonium hexafluoroantimonate] | – | – | – | – | – | mass density ([3]; Liquid): 1715 ± 16 kg/m3
12 | O=S(=O)(O)C(F)(F)F [methanesulfonic acid, trifluoro-] + CC[N+](CC)(CC)CC.F[P-](F)(F)(F)(F)F | – | – | – | – | 1.3292 ± 0.005 | –
13 | CCCCCC[N+](CC)(CC)CC.F[P-](F)(F)(F)(F)F [N,N,N-triethyl-N-hexylammonium hexafluorophosphate] | – | – | – | – | – | mass density ([3]; Crystal): 1351 ± 16 kg/m3; Normal melting temperature ([3]; Crystal): 161.60 ± 0.5 °C
14 | O=S(=O)(O)C(F)(F)F [methanesulfonic acid, trifluoro-] + CCCCCCCC[N+](CC)(CC)CC.F[P-](F)(F)(F)(F)F | – | – | – | – | 1.3292 ± 0.005 | –
15 | O=S(=O)(O)C(F)(F)F [methanesulfonic acid, trifluoro-] + CCCCCC[N+](CC)(CC)CC.F[P-](F)(F)(F)(F)F | – | – | – | – | 1.3292 ± 0.005 | –
16 | O=S(=O)(O)C(F)(F)F [methanesulfonic acid, trifluoro-] + CC[N+](CC)(CC)CC.[F][Sb-]([F])([F])([F])([F])[F] | – | – | – | – | 1.3292 ± 0.005 | –
17 | O=S(=O)(O)C(F)(F)F [methanesulfonic acid, trifluoro-] + CCCC[N+](CC)(CC)CC.F[P-](F)(F)(F)(F)F | – | – | – | – | 1.3292 ± 0.005 | –
18 | CC[N+](CC)(CC)CC.F[B-](F)(F)F [tetraethylammonium tetrafluoroborate] | – | – | – | – | – | mass density ([3]; Crystal): 1220 ± 16 kg/m3; Normal melting temperature ([3]; Crystal): 71.40 ± 0.5 °C
19 | CC[N+](CC)(CC)CC.F[P-](F)(F)(F)(F)F [tetraethylammonium hexafluorophosphate] | – | – | – | – | – | mass density ([3]; Crystal): 1440 ± 16 kg/m3; Normal melting temperature ([3]; Crystal): 77.10 ± 0.5 °C
20 | O=S(=O)(O)C(F)(F)F [methanesulfonic acid, trifluoro-] + CCCCCC[N+](CC)(CC)CC.F[B-](F)(F)F | – | – | – | – | 1.3292 ± 0.005 | –
21 | CCCC[N+](CC)(CC)CC.F[P-](F)(F)(F)(F)F [N,N,N-triethyl-N-butylammonium hexafluorophosphate] | – | – | – | – | – | mass density ([3]; Crystal): 1366 ± 16 kg/m3; Normal melting temperature ([3]; Crystal 1): 178.90 ± 0.5 °C
22 | CCCC[N+](CC)(CC)CC.F[P-](F)(F)(F)(F)F [N,N,N-triethyl-N-butylammonium hexafluorophosphate] + O=S(=O)(O)C(F)(F)F | 1.3405 ± 0.0052 | 1.3522 ± 0.0052 | 1.3632 ± 0.0051 | 1.3745 ± 0.0051 | – | refractive index ([2]; w1 = 0.5): 1.3786 ± 0.005; refractive index ([2]; w1 = 0.6): 1.3782 ± 0.005
23 | CC[N+](CC)(CC)CC.F[P-](F)(F)(F)(F)F [tetraethylammonium hexafluorophosphate] + O=S(=O)(O)C(F)(F)F | 1.3398 ± 0.0051 | 1.3499 ± 0.0051 | 1.3602 ± 0.0051 | 1.3691 ± 0.0051 | – | –
24 | CC[N+](CC)(CC)CC.[F][Sb-]([F])([F])([F])([F])[F] [tetraethylammonium hexafluoroantimonate] + O=S(=O)(O)C(F)(F)F | 1.3349 ± 0.0051 | 1.3408 ± 0.0051 | 1.3498 ± 0.0051 | 1.3571 ± 0.0051 | – | refractive index ([2]; w1 = 0.5): 1.3641 ± 0.0051; refractive index ([2]; w1 = 0.6): 1.3678 ± 0.005

More lines, main results first:

Row | refractive index ([2]; w1 = 0.1) | refractive index ([2]; w1 = 0.2) | refractive index ([2]; w1 = 0.3) | refractive index ([2]; w1 = 0.4) | refractive index ([2]; w2 = 0) | SMILES | further results
25 | 1.3493 ± 0.0052 | 1.3583 ± 0.0051 | 1.3672 ± 0.0051 | 1.3745 ± 0.0051 | – | CCCCCCCC[N+](CC)(CC)CC.F[B-](F)(F)F [N,N,N-triethyl-N-octylammonium tetrafluoroborate] + O=S(=O)(O)C(F)(F)F | refractive index ([2]; w1 = 0.5): 1.3811 ± 0.0051
26 | 1.3381 ± 0.0051 | 1.3462 ± 0.0051 | 1.3563 ± 0.0051 | 1.3628 ± 0.0051 | – | CCCCCC[N+](CC)(CC)CC.[F][Sb-]([F])([F])([F])([F])[F] [N,N,N-triethyl-N-hexylammonium hexafluoroantimonate] + O=S(=O)(O)C(F)(F)F | refractive index ([2]; w1 = 0.5): 1.3722 ± 0.0051; refractive index ([2]; w1 = 0.6): 1.3809 ± 0.0051
27 | 1.3451 ± 0.0052 | 1.3543 ± 0.0051 | 1.3636 ± 0.0051 | 1.3698 ± 0.0051 | – | CCCC[N+](CC)(CC)CC.F[B-](F)(F)F [N,N,N-triethyl-N-butylammonium tetrafluoroborate] + O=S(=O)(O)C(F)(F)F | refractive index ([2]; w1 = 0.5): 1.3771 ± 0.0051; refractive index ([2]; w1 = 0.6): 1.3857 ± 0.0051
28 | 1.3421 ± 0.0052 | 1.3549 ± 0.0052 | 1.3667 ± 0.0051 | 1.3762 ± 0.0051 | – | CCCCCC[N+](CC)(CC)CC.F[P-](F)(F)(F)(F)F [N,N,N-triethyl-N-hexylammonium hexafluorophosphate] + O=S(=O)(O)C(F)(F)F | –
29 | 1.3475 ± 0.0052 | 1.3572 ± 0.0051 | 1.3654 ± 0.0051 | 1.3728 ± 0.0051 | – | CCCCCC[N+](CC)(CC)CC.F[B-](F)(F)F [N,N,N-triethyl-N-hexylammonium tetrafluoroborate] + O=S(=O)(O)C(F)(F)F | refractive index ([2]; w1 = 0.5): 1.3782 ± 0.0051
30 | 1.3427 ± 0.0052 | 1.3562 ± 0.0052 | 1.3681 ± 0.0051 | 1.3781 ± 0.0051 | – | CCCCCCCC[N+](CC)(CC)CC.F[P-](F)(F)(F)(F)F [N,N,N-triethyl-N-octylammonium hexafluorophosphate] + O=S(=O)(O)C(F)(F)F | refractive index ([2]; w1 = 0.5): 1.3875 ± 0.0051
31 | 1.3421 ± 0.0051 | 1.3512 ± 0.0051 | 1.3601 ± 0.0051 | 1.3656 ± 0.0051 | – | CC[N+](CC)(CC)CC.F[B-](F)(F)F [tetraethylammonium tetrafluoroborate] + O=S(=O)(O)C(F)(F)F | refractive index ([2]; w1 = 0.5): 1.3732 ± 0.0051
